Measured values published in BindingDB's records for doi:10.7270/Q2SX6BN0 (The Scripps Research Institute Molecular Screening Center, 2010).

Biological target: T1, NADPH oxidase 1 (Homo sapiens, UniProt Q9Y5S8)
T1 sequence (Q9Y5S8 whole entry): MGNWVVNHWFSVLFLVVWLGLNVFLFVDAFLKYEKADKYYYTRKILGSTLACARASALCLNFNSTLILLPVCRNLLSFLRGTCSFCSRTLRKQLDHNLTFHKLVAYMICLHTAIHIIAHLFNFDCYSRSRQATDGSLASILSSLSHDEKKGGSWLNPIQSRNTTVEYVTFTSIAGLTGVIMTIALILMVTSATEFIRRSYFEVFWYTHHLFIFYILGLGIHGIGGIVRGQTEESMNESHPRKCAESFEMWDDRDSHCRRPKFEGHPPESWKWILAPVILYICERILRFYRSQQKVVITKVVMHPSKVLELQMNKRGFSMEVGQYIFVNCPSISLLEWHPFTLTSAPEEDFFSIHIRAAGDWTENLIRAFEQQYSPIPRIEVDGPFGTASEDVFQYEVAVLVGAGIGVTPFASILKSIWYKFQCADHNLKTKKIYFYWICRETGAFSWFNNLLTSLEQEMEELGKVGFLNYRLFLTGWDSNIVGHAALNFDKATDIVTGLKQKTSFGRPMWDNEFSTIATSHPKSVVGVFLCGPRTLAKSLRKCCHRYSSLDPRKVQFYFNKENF
Assay: ROS production inhibition in HEK293 cells, late-stage follow-up, counter-screen for NOX1 inhibitor project, cell-based, IC50, set 2 (AID 435002)

Row | Compound | IC50 [µM]
1 | CN(C)c1ccc(CN=Nc2c(Cl)cncc2Cl)cc1 | 4
2 | Oc1c(Br)cc(CN=Nc2c(Cl)cncc2Cl)cc1Br [4-[[2-[3,5-bis(chloranyl)pyridin-4-yl]hydrazinyl]methylidene]-2,6-bis(bromanyl)cyclohexa-2,5-dien-1-one] | 10
